Assay results as given in PubChem BioAssay (NCI).
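1) Cells in 96-well plates. 2) Compound, 48 h, 5 concentrations. 3) Linear interpolation between surrounding doses. 4) Unreached endpoint = highest concentration. TGI marks complete inhibition of growth.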

Key:
Experiment in all cases: NCI tumour cell line growth inhibition, 48 h
M19-MEL melanoma = system: M19-MEL melanoma
HOP-92 NSCLC = system: HOP-92 NSCLC
M14 melanoma = system: M14 melanoma
RXF 393 renal = system: RXF 393 renal
SF-539 CNS = system: SF-539 CNS
LXFL 529 NSCLC = system: LXFL 529 NSCLC
OVCAR-3 ovarian = system: OVCAR-3 ovarian
786-0 renal = system: 786-0 renal
HL-60(TB) leukemia = system: HL-60(TB) leukemia
UO-31 renal = system: UO-31 renal
SN12C renal = system: SN12C renal
ACHN renal = system: ACHN renal
HOP-18 NSCLC = system: HOP-18 NSCLC
TK-10 renal = system: TK-10 renal
NCI-H460 lung = system: NCI-H460 lung
RPMI-8226 leukemia = system: RPMI-8226 leukemia
NCI-H522 lung = system: NCI-H522 lung
UACC-62 melanoma = system: UACC-62 melanoma
SW-620 colon = system: SW-620 colon
EKVX NSCLC = system: EKVX NSCLC
UACC-257 melanoma = system: UACC-257 melanoma
KM20L2 colon = system: KM20L2 colon
SK-MEL-28 melanoma = system: SK-MEL-28 melanoma
NCI-H23 lung = system: NCI-H23 lung
NCI-H226 lung = system: NCI-H226 lung
OVCAR-5 ovarian = system: OVCAR-5 ovarian
HCC-2998 colon = system: HCC-2998 colon
OVCAR-8 ovarian = system: OVCAR-8 ovarian
CCRF-CEM leukemia = system: CCRF-CEM leukemia
HT29 colon = system: HT29 colon
SNB-19 CNS = system: SNB-19 CNS
A549 NSCLC = system: A549 NSCLC
SK-MEL-5 melanoma = system: SK-MEL-5 melanoma
SNB-75 CNS = system: SNB-75 CNS
SK-OV-3 ovarian = system: SK-OV-3 ovarian
HOP-62 NSCLC = system: HOP-62 NSCLC
K-562 leukemia = system: K-562 leukemia
DMS 114 small cell lung = system: DMS 114 small cell lung
KM12 colon = system: KM12 colon
MOLT-4 leukemia = system: MOLT-4 leukemia
LOX IMVI melanoma = system: LOX IMVI melanoma
MALME-3M melanoma = system: MALME-3M melanoma
DLD-1 colon = system: DLD-1 colon
COLO 205 colon = system: COLO 205 colon
IGROV1 ovarian = system: IGROV1 ovarian
OVCAR-4 ovarian = system: OVCAR-4 ovarian
SR leukemia = system: SR leukemia
SF-295 CNS = system: SF-295 CNS
HCT-116 colon = system: HCT-116 colon
SNB-78 CNS = system: SNB-78 CNS
SF-268 CNS = system: SF-268 CNS
HCT-15 colon = system: HCT-15 colon
U251 CNS = system: U251 CNS
A498 renal = system: A498 renal
CAKI-1 renal = system: CAKI-1 renal
SK-MEL-2 melanoma = system: SK-MEL-2 melanoma
DMS 273 small cell lung = system: DMS 273 small cell lung
RXF-631 renal = system: RXF-631 renal
MDA-MB-435 = system: MDA-MB-435
XF 498 CNS = system: XF 498 CNS
MCF7 breast = system: MCF7 breast
NCI/ADR-RES ovarian = system: NCI/ADR-RES ovarian
BT-549 breast = system: BT-549 breast
MDA-MB-231 breast = system: MDA-MB-231 breast
MDA-N = system: MDA-N
HS 578T breast = system: HS 578T breast
T-47D breast = system: T-47D breast
DU-145 prostate = system: DU-145 prostate
PC-3 prostate = system: PC-3 prostate

Measured: TGI

COc1ccc2nc(-c3ccc(O)cc3)ccc2c1
not listed: SF-268 CNS | HCT-15 colon | U251 CNS | A498 renal | CAKI-1 renal | SK-MEL-2 melanoma | DMS 273 small cell lung | RXF-631 renal | MDA-MB-435 | XF 498 CNS | MCF7 breast | NCI/ADR-RES ovarian | BT-549 breast | MDA-MB-231 breast | MDA-N | HS 578T breast | T-47D breast | DU-145 prostate | PC-3 prostate
> 100 µM: all other assays above

COc1cccc(/C=N/[N-]C(N)=O)c1[O-].[OH3+].[Pd+2]
not listed: M19-MEL melanoma | LXFL 529 NSCLC | HL-60(TB) leukemia | HOP-18 NSCLC | DMS 114 small cell lung | DLD-1 colon | SNB-78 CNS | DMS 273 small cell lung | RXF-631 renal | MDA-MB-435 | XF 498 CNS | MCF7 breast | NCI/ADR-RES ovarian | BT-549 breast | MDA-MB-231 breast | MDA-N | HS 578T breast | T-47D breast | DU-145 prostate | PC-3 prostate
> 100 µM: all other assays above

Cc1csc(CCC(N)C(=O)O)n1 (stereo not drawn)
not listed: HL-60(TB) leukemia | KM20L2 colon | OVCAR-5 ovarian | SNB-19 CNS | HOP-62 NSCLC | DMS 114 small cell lung | OVCAR-4 ovarian | SR leukemia | SF-268 CNS | A498 renal | SK-MEL-2 melanoma | RXF-631 renal | MDA-MB-435 | XF 498 CNS | MCF7 breast | NCI/ADR-RES ovarian | BT-549 breast | MDA-MB-231 breast | MDA-N | HS 578T breast | T-47D breast | DU-145 prostate | PC-3 prostate
> 100 µM: all other assays above

CCCC(=O)OC1C(C2COC(C)(C)O2)OC2OC(C)(C)OC21 (stereo not drawn)
> 100 µM: M19-MEL melanoma | HOP-92 NSCLC | M14 melanoma | RXF 393 renal | HL-60(TB) leukemia | UO-31 renal | ACHN renal | TK-10 renal | NCI-H460 lung | NCI-H522 lung | UACC-62 melanoma | EKVX NSCLC | UACC-257 melanoma | KM20L2 colon | U251 CNS | DMS 273 small cell lung | SK-MEL-28 melanoma | NCI-H23 lung | OVCAR-5 ovarian | OVCAR-8 ovarian | A498 renal | CCRF-CEM leukemia | HT29 colon | SNB-19 CNS | SK-OV-3 ovarian | HOP-62 NSCLC | K-562 leukemia | DMS 114 small cell lung | KM12 colon | MOLT-4 leukemia | IGROV1 ovarian | SR leukemia | SF-295 CNS | HCT-116 colon | SNB-78 CNS

O=C(CCC(=O)C1Cc2ccccc2C1=O)Nc1cccc(C(F)(F)F)c1 (stereo not drawn)
not listed: RPMI-8226 leukemia | NCI-H522 lung | SK-MEL-28 melanoma | SNB-75 CNS | DMS 114 small cell lung | SR leukemia | A498 renal | MDA-MB-435 | XF 498 CNS | MCF7 breast | NCI/ADR-RES ovarian | BT-549 breast | MDA-MB-231 breast | MDA-N | HS 578T breast | T-47D breast | DU-145 prostate | PC-3 prostate
> 100 µM: all other assays above

Cc1cc2c(cc1C)[n+](=O)c(C(=O)/C=C/c1ccccc1[N+](=O)[O-])c(C)n2[O-]
49.1 µM: DMS 114 small cell lung
63 µM: NCI-H23 lung
> 68.6 µM: SK-OV-3 ovarian
57.6 µM: NCI-H522 lung
37.7 µM: XF 498 CNS
> 84.1 µM: HOP-62 NSCLC
> 95.7 µM: SR leukemia
> 77.2 µM: HS 578T breast
75.3 µM: UACC-62 melanoma
> 97.7 µM: CAKI-1 renal
64.6 µM: SF-295 CNS
> 94.5 µM: DMS 273 small cell lung
55.2 µM: SK-MEL-2 melanoma
> 46.4 µM: MCF7 breast
69.7 µM: TK-10 renal
47.2 µM: SF-539 CNS
74.9 µM: SF-268 CNS
46.2 µM: RXF 393 renal
> 97 µM: OVCAR-3 ovarian
41.1 µM: SNB-75 CNS
> 80.9 µM: SNB-78 CNS
64.8 µM: U251 CNS
99.1 µM: EKVX NSCLC
67.4 µM: HOP-92 NSCLC
> 93.6 µM: HOP-18 NSCLC
91.8 µM: A498 renal
42.3 µM: SNB-19 CNS
> 96.7 µM: MALME-3M melanoma
66.9 µM: ACHN renal
68.4 µM: 786-0 renal
not listed: RXF-631 renal
> 100 µM: all other assays above

CC(C)=NNc1ncnc2nc[nH]c12
83.9 µM: HS 578T breast
> 72.5 µM: HL-60(TB) leukemia
32.2 µM: NCI-H522 lung
> 88.9 µM: SF-539 CNS
59.5 µM: COLO 205 colon
> 79.6 µM: SNB-75 CNS
20 µM: UACC-62 melanoma
40.1 µM: OVCAR-3 ovarian
38.9 µM: NCI-H460 lung
67.8 µM: DU-145 prostate
> 58 µM: SK-OV-3 ovarian
32 µM: HCC-2998 colon
> 94.3 µM: MDA-MB-231 breast
> 48.4 µM: OVCAR-5 ovarian
> 60.8 µM: SR leukemia
48.8 µM: SK-MEL-5 melanoma
> 75.4 µM: HCT-116 colon
54.2 µM: A498 renal
> 72.4 µM: A549 NSCLC
98.2 µM: EKVX NSCLC
> 79.1 µM: T-47D breast
> 67.8 µM: SK-MEL-2 melanoma
97 µM: NCI-H226 lung
> 62 µM: RPMI-8226 leukemia
> 76.7 µM: HOP-62 NSCLC
> 87.9 µM: UO-31 renal
> 93.8 µM: HOP-92 NSCLC
not listed: M19-MEL melanoma | LXFL 529 NSCLC | HOP-18 NSCLC | KM20L2 colon | DMS 114 small cell lung | DLD-1 colon | SNB-78 CNS | DMS 273 small cell lung | RXF-631 renal | XF 498 CNS
> 100 µM: all other assays above
